From patent US8864853B2, “Additive mixture for the bactericidal and anticorrosive additization of fuels” (l'Air Liquide Societe Anonyme pour l'etude et …, priority 2009, dated 2014)

Assay: Example 1: visual appearance of diesel with Cu or brass sheet
Format: physicochemical
Conditions: evaluation of Example 1; diesel oil with 5% FAME; time delay, concentration-dependent, turbulent flow
Protocol: Materials used: • 3,3′-methylenebis(5-methyloxazolidine) • brass 63 (100×20×1 mm), Cat. No.: 16-24 from Riegger Industriehandel, Reinbek, Federal Republic of Germany • E-copper ((100×20×1 mm), Cat. No.: 15-54 from Riegger • diesel fuel to EN 590, with 5% (V/V) fatty acid methyl ester
Procedure: The solutions and the metal sheet were each introduced into a 500 ml wide-neck bottle. Solutions 1A-1C were not stirred; solutions 1D-1G were stirred with a magnetic stirrer. The appearance of the solutions was assessed visually.

**Q.** For CC1CN(CN2COC(C)C2)CO1 (stereo not shown) [3,3′-methylenebis(5-methyloxazolidine)], which “compatibility as an additive to diesel oil in contact with copper or nonferrous metal” value is on record?
**A.** The value was “incompatible”.
